Where “and” joins values, the source holds several entries; their conditions need not be identical. Equal entries are not always repeated. Inconclusive results and toxic doses are left out.
Tested on: P388 leukemia ip, CD2F1 mice, survival T/C
Experiment: NCI In Vivo Anticancer Drug Screen. Data for tumor model P388 Leukemia (intraperitoneal) in CD2F1 (CDF1) mice
Conditions: endpoint: median survival time, higher = longer survival
Outline: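 Mice carrying the transplanted tumor received test compound or vehicle. Survival was recorded in each group, and the value is the treated-group measurement divided by that of the vehicle-treated control group.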

[1] = dose: 60.0 mg/kg/injection, schedule: Q01DX005 (ip), vehicle: saline
[2] = dose: 120.0 mg/kg/injection, schedule: Q01DX005 (ip), vehicle: saline
[3] = dose: 240.0 mg/kg/injection, schedule: Q01DX005 (ip), vehicle: saline
[4] = dose: 60.0 mg/kg/injection, schedule: Q01DX005 (ip), vehicle: saline with Tween-80
[5] = dose: 120.0 mg/kg/injection, schedule: Q01DX005 (ip), vehicle: saline with Tween-80
[6] = dose: 50.0 mg/kg/injection, schedule: Q01DX005 (ip), vehicle: saline with Tween-80
[7] = dose: 100.0 mg/kg/injection, schedule: Q01DX005 (ip), vehicle: saline with Tween-80
[8] = dose: 200.0 mg/kg/injection, schedule: Q01DX005 (ip), vehicle: saline with Tween-80
[9] = dose: 60.0 mg/kg/injection, schedule: Q01DX005 (ip), vehicle: Klucel (hydroxypropylcellulose) (HPC)
[10] = dose: 120.0 mg/kg/injection, schedule: Q01DX005 (ip), vehicle: Klucel (hydroxypropylcellulose) (HPC)
[11] = dose: 240.0 mg/kg/injection, schedule: Q01DX005 (ip), vehicle: Klucel (hydroxypropylcellulose) (HPC)

Question: With `CCN(CC)c1c(C)nnc2c3c(-c4ccccc4)c(-c4ccccc4)nnc3nn12` as the compound, how does the T/C (dose: 50.0 mg/kg/injection, schedule: Q04DX003 (ip), vehicle: saline with Tween-80) read?
Answer: 86 % of control

Question: What about the T/C (dose: 200.0 mg/kg/injection, schedule: Q04DX003 (ip), vehicle: saline with Tween-80) of the same compound?
Answer: 86 % of control

Question: What about the T/C (dose: 400.0 mg/kg/injection, schedule: Q04DX003 (ip), vehicle: saline with Tween-80) of the same compound?
Answer: 91 % of control

Question: Which results are given for `CCOC(=O)CC1NC(=O)CNC1=O` (configuration not stated)?
Answer: T/C [1]: 100 % of control; T/C [2]: 101 % of control; T/C [3]: 100 % of control

Question: `COC(=O)C(Cc1cc(OC)c(OC)c(OC)c1I)C(=O)OC` was tested. Which T/C (dose: 100.0 mg/kg/injection, schedule: Q01DX001 (ip), vehicle: saline with Tween-80) did it give?
Answer: 102 % of control

Question: What about the T/C (dose: 200.0 mg/kg/injection, schedule: Q01DX001 (ip), vehicle: saline with Tween-80) of the same compound?
Answer: 100 % of control

Question: What about the T/C (dose: 400.0 mg/kg/injection, schedule: Q01DX001 (ip), vehicle: saline with Tween-80) of the same compound?
Answer: 103 % of control

Question: How did the T/C (dose: 100.0 mg/kg/injection, schedule: Q04DX003 (ip), vehicle: saline with Tween-80) turn out when `Cc1cccn2c(N=O)cnc12` was run?
Answer: 98 % of control

Question: For `OC1C2CCC1C(N1CCOCC1)CC2` (configuration not stated), which T/C (dose: 50.0 mg/kg/injection, schedule: Q01DX009 (ip), vehicle: saline sonified) is on record?
Answer: 100 % of control

Question: What about the T/C (dose: 100.0 mg/kg/injection, schedule: Q01DX009 (ip), vehicle: saline sonified) of the same compound?
Answer: 100 % of control

Question: What about the T/C (dose: 200.0 mg/kg/injection, schedule: Q01DX009 (ip), vehicle: saline sonified) of the same compound?
Answer: 105 % of control

Question: What does the source list for `C=C(C)CCP(=S)(OCC)OCC`?
Answer: T/C [4]: 102 % of control; T/C [5]: 101 % of control; T/C (dose: 240.0 mg/kg/injection, schedule: Q01DX005 (ip), vehicle: saline with Tween-80): 100 % of control

Question: For `COC(=O)NC1(NC(=O)OC)NC(=O)c2cc(OC)c(OC)cc2N1`, which T/C (dose: 25.0 mg/kg/injection, schedule: Q01DX005 (ip), vehicle: saline with Tween-80) is on record?
Answer: 102 % of control

Question: And the T/C [6]?
Answer: 99 % of control

Question: What about the T/C [7] of the same compound?
Answer: 98 % of control

Question: What about the T/C [8] of the same compound?
Answer: 118 % of control

Question: Which T/C [1] does the source give for `COc1nc(NC2OCC(O)C(O)C2O)c(C=O)c(=O)n1C` (configuration not stated) here?
Answer: 100 % of control

Question: What about the T/C [2] of the same compound?
Answer: 90 % of control

Question: What about the T/C [3] of the same compound?
Answer: 90 % of control

Question: Which T/C (dose: 50.0 mg/kg/injection, schedule: Q01DX005 (ip), vehicle: Klucel (hydroxypropylcellulose) (HPC)) does the source give for `CC1(c2ccccc2)NC(=O)N(Sc2ccccc2)C1=O` (configuration not stated) here?
Answer: 111 % of control

Question: And the T/C (dose: 100.0 mg/kg/injection, schedule: Q01DX005 (ip), vehicle: Klucel (hydroxypropylcellulose) (HPC))?
Answer: 113 % of control

Question: What about the T/C (dose: 200.0 mg/kg/injection, schedule: Q01DX005 (ip), vehicle: Klucel (hydroxypropylcellulose) (HPC)) of the same compound?
Answer: 107 % of control

Question: Which T/C (dose: 3.12 mg/kg/injection, schedule: Q01DX009 (ip), vehicle: Klucel (hydroxypropylcellulose) (HPC)) does the source give for `N#CN=[N+]([O-])c1ccccc1Br` here?
Answer: 98 % of control

Question: And the T/C (dose: 6.25 mg/kg/injection, schedule: Q01DX009 (ip), vehicle: Klucel (hydroxypropylcellulose) (HPC))?
Answer: 100 % of control

Question: What about the T/C (dose: 6.25 mg/kg/injection, schedule: Q04DX003 (ip), vehicle: Klucel (hydroxypropylcellulose) (HPC)) of the same compound?
Answer: 100 % of control

Question: What about the T/C (dose: 12.5 mg/kg/injection, schedule: Q01DX009 (ip), vehicle: Klucel (hydroxypropylcellulose) (HPC)) of the same compound?
Answer: 114 % of control

Question: And the T/C (dose: 12.5 mg/kg/injection, schedule: Q04DX003 (ip), vehicle: Klucel (hydroxypropylcellulose) (HPC))?
Answer: 91 % of control

Question: And the T/C (dose: 25.0 mg/kg/injection, schedule: Q04DX003 (ip), vehicle: Klucel (hydroxypropylcellulose) (HPC))?
Answer: 87 % of control

Question: What does the source list for `NC(=O)c1cccn1Cc1ccccc1SSc1ccccc1Cn1cccc1C(N)=O`?
Answer: T/C [4]: 91 % of control; T/C [5]: 87 % of control

Question: What does the source list for `CNC(=O)Oc1ccc2c(c1)[C@]1(C)CCN(C)O[C@@H]1N2C`?
Answer: T/C (dose: 0.79 mg/kg/injection, schedule: Q01DX005 (ip), vehicle: Klucel (hydroxypropylcellulose) (HPC)): 100 % of control; T/C (dose: 1.56 mg/kg/injection, schedule: Q01DX005 (ip), vehicle: Klucel (hydroxypropylcellulose) (HPC)): 100 % of control

Question: What does the source list for `CC1=C2C3OC(=O)C(C)C3CCC2(C)C=C(Br)C1=O` (configuration not stated)?
Answer: T/C [9]: 106 % of control; T/C (dose: 100.0 mg/kg/injection, schedule: Q04DX002 (ip), vehicle: saline with Tween-80): 101 % of control; T/C [10]: 98 % of control; T/C (dose: 200.0 mg/kg/injection, schedule: Q04DX002 (ip), vehicle: saline with Tween-80): 97 % of control; T/C [11]: 104 % of control; T/C (dose: 400.0 mg/kg/injection, schedule: Q04DX002 (ip), vehicle: saline with Tween-80): 97 % of control

Question: With `CCC(/C=C/c1ccccc1)=N\NC(=O)c1ccccc1` as the compound, how does the T/C [6] read?
Answer: 96 % of control

Question: And the T/C [7]?
Answer: 96 % of control

Question: What about the T/C [8] of the same compound?
Answer: 95 % of control

Question: What does the source list for `CCCCC(=O)N(c1ccc(Nc2c3ccccc3nc3cc([N+](=O)[O-])ccc23)cc1)S(C)(=O)=O`?
Answer: T/C (dose: 0.07 mg/kg/injection, schedule: Q01DX009 (ip), vehicle: saline with Tween-80): 107 % of control; T/C (dose: 0.1 mg/kg/injection, schedule: Q01DX009 (ip), vehicle: saline with Tween-80): 107 % of control; T/C (dose: 0.15 mg/kg/injection, schedule: Q01DX009 (ip), vehicle: saline with Tween-80): 105 % of control; T/C (dose: 0.23 mg/kg/injection, schedule: Q01DX009 (ip), vehicle: saline with Tween-80): 123 % of control; T/C (dose: 0.44 mg/kg/injection, schedule: Q04DX003 (ip), vehicle: saline with Tween-80): 112 % of control; T/C (dose: 0.66 mg/kg/injection, schedule: Q04DX003 (ip), vehicle: saline with Tween-80): 113 % of control; T/C (dose: 1.0 mg/kg/injection, schedule: Q04DX003 (ip), vehicle: saline with Tween-80): 119 % of control; T/C (dose: 2.5 mg/kg/injection, schedule: Q01DX009 (ip), vehicle: saline with Tween-80): 188 % of control; T/C (dose: 4.4 mg/kg/injection, schedule: Q04DX003 (ip), vehicle: saline with Tween-80): 154 % of control; T/C (dose: 5.0 mg/kg/injection, schedule: Q01DX009 (ip), vehicle: saline with Tween-80): 227 % of control; T/C (dose: 6.6 mg/kg/injection, schedule: Q04DX003 (ip), vehicle: saline with Tween-80): 159 % of control; T/C (dose: 9.38 mg/kg/injection, schedule: Q01DX009 (ip), vehicle: saline with Tween-80): 227 % of control; T/C (dose: 10.0 mg/kg/injection, schedule: Q01DX009 (ip), vehicle: saline with Tween-80): 254 % of control; T/C (dose: 10.0 mg/kg/injection, schedule: Q04DX003 (ip), vehicle: saline with Tween-80): 168 % of control; T/C (dose: 10.8 mg/kg/injection, schedule: Q04DX003 (ip), vehicle: water): 153 % of control; T/C (dose: 15.0 mg/kg/injection, schedule: Q04DX003 (ip), vehicle: saline with Tween-80): 186 % of control; T/C (dose: 18.0 mg/kg/injection, schedule: Q04DX003 (ip), vehicle: water): 162 % of control; T/C (dose: 30.0 mg/kg/injection, schedule: Q04DX003 (ip), vehicle: water): 180 % of control; T/C (dose: 50.0 mg/kg/injection, schedule: Q04DX003 (ip), vehicle: water): 171 % of control

Question: Which T/C (dose: 50.0 mg/kg/injection, schedule: Q01DX009 (ip), vehicle: saline with Tween-80) does the source give for `CC(C)=C(OS(=O)(=O)C(F)(F)F)[Si](C)(C)C` here?
Answer: 99 % of control

Question: And the T/C (dose: 100.0 mg/kg/injection, schedule: Q01DX009 (ip), vehicle: saline with Tween-80)?
Answer: 105 % of control

Question: What about the T/C (dose: 200.0 mg/kg/injection, schedule: Q01DX009 (ip), vehicle: saline with Tween-80) of the same compound?
Answer: 105 % of control

Question: How did the T/C [9] turn out when `O=C(O)c1cnc2cc3c(cc2c1Nc1cccc(Cl)c1)OCO3` was run?
Answer: 93 % of control

Question: What about the T/C [10] of the same compound?
Answer: 105 % of control

Question: And the T/C [11]?
Answer: 106 % of control

Question: Which T/C (dose: 12.5 mg/kg/injection, schedule: Q01DX009 (ip), vehicle: saline) does the source give for `CC(C)[N+](C)(C)CC(O)COc1ccccc1-c1ccccc1` (configuration not stated) here?
Answer: 100 % of control

Question: What about the T/C (dose: 25.0 mg/kg/injection, schedule: Q01DX009 (ip), vehicle: saline) of the same compound?
Answer: 98 % of control

Question: And the T/C (dose: 50.0 mg/kg/injection, schedule: Q01DX009 (ip), vehicle: saline)?
Answer: 93 % of control and 97 % of control

Question: What does the source list for `CC1(O)C(=O)OC(CO)C1O` (configuration not stated)?
Answer: T/C [6]: 102 % of control; T/C [7]: 102 % of control; T/C [8]: 100 % of control

Question: What does the source list for `CCN(CC)CCSc1c2ccccc2nc2ccccc12`?
Answer: T/C (dose: 3.75 mg/kg/injection, schedule: Q01DX005 (ip), vehicle: saline with Tween-80): 110 % of control; T/C (dose: 7.5 mg/kg/injection, schedule: Q01DX005 (ip), vehicle: saline with Tween-80): 114 % of control; T/C (dose: 15.0 mg/kg/injection, schedule: Q01DX005 (ip), vehicle: saline with Tween-80): 107 % of control

Question: Which results are given for `CCc1nc(N)nc(N)c1-c1ccc(N2CCOCC2)c(N=[N+]=[N-])c1`?
Answer: T/C (dose: 6.25 mg/kg/injection, schedule: Q01DX005 (ip), vehicle: Klucel (hydroxypropylcellulose) (HPC)): 101 % of control; T/C (dose: 12.5 mg/kg/injection, schedule: Q01DX005 (ip), vehicle: Klucel (hydroxypropylcellulose) (HPC)): 100 % of control; T/C (dose: 25.0 mg/kg/injection, schedule: Q01DX005 (ip), vehicle: Klucel (hydroxypropylcellulose) (HPC)): 97 % of control

From PubChem BioAssay AID330 (DTP/NCI, 2004)
